According to PMC10049421, “Anticancer Activity of Sunitinib Analogues in Human Pancreatic Cancer Cell Cultures under Normoxia and Hypoxia” (International Journal of Molecular Sciences, 2023):

Legend:
PANC-1 cells [1] = settings: cited from earlier work
MIA PaCa-2 cells [2] = test: 'Wound healing' migration assay, MIA PaCa-2; format: cell-based, human; settings: for inhibition of migration, hypoxia compared with normoxia: MIA PaCa-2
Description: (§1) Cell migration was tested by the ‘wound’ healing assay, as described elsewhere. Briefly, MIA PaCa-2 and PANC-1 cells were seeded into 24-well plates (Corning). MIA PaCa-2 at a density of 80,000 cells/well and PANC-1 at a density of 60,000 cells/well in 500 μL of medium and incubated in a humidified atmosphere containing 5% CO2 at 37 °C for 1 day. Then the monolayers were scratched with a sterile 100 μL pipette plastic tip in the centre of the well. The old cell medium is aspirated, the wells are rinsed with 400 μL phosphate-buffered saline (PBS, Gibco). […] Photos of ‘wounds’ were taken every 24 h for 3 days and the compound effect was evaluated by measuring the size of the “wound” area. Images were analysed by TScratch software (CSE Lab, Zurich, Switzerland).

[3] = tested on: MIA PaCa-2 and PANC-1 cells; test: MTT cell viability, both pancreatic cancer cell lines; format: cell-based, human; settings: for activity on cell viability, comparison between cell lines: EC50 comparison MIA PaCa-2 vs PANC-1
Description: (§2) Cell viability was tested using MTT (3-(4,5-dimethylthiazol-2-yl)-2,5-diphenyltetrazolium bromide; Sigma-Aldrich Co.) assay, as described previously Briefly, MIA PaCa-2 and PANC-1 cells were seeded in 96-well plates (Corning, NY, USA) in a volume of 100 μL (4000 cells/well). After 24 h incubation, the cells were treated with sunitinib and its derivatives. Only the medium without cells was used as a positive control, and the medium with 0.5% DMSO (Sigma-Aldrich Co.) served as a negative control. After 72 h the cells were incubated with the 0.5 mg/mL of MTT solution for the next 4 h. The coloured formazan product was dissolved in 100 μL DMSO. The absorbance was measured spectrophotometrically at wavelengths 570 and 630 nm. […] When determining the EC50 values of the compounds under hypoxic conditions, the growth medium was supplemented with 100 µM of CoCl2 solution (97%, Alfa Aesar, MA, USA).

PANC-1 cells [4] = test: 'Wound healing' migration assay, PANC-1; format: cell-based, human; settings: for inhibition of migration, hypoxia compared with normoxia: PANC-1; for 'wound' area compared to the control: PANC-1, 0.35 μM
Description: as §1

PANC-1 cells [5] = test: MTT cell viability assay, PANC-1; format: cell-based, human; settings: for EC50: Homo sapiens, PANC-1, 72 h, 72 h, MTT
Description: as §2

PANC-1 cell monolayer = settings: PANC-1, 1 μM, cited from earlier work
MIA PaCa-2 cells [6] = test: MTT cell viability assay, MIA PaCa-2; format: cell-based, human; settings: for EC50: Homo sapiens, MIA PaCa-2, 72 h, 72 h, MTT
Description: as §2

MIA PaCa-2 cells [7] = test: Clonogenic assay, MIA PaCa-2; format: cell-based, human; settings: for MIA PaCa-2 cell colony formation: 90% of EC50, normoxia; for number and area of colonies: MIA PaCa-2, higher concentration (90% of EC50), normoxia and hypoxia
Description: (§3) Compound effect on cell colony formation and growth was established by clonogenic assay, as previously published. […] Cells were incubated in a humidified atmosphere containing 5% CO2 at 37 °C and grown for 8 days. After incubation, the cells were rinsed with PBS and fixed with 10% formaldehyde, methanol-free (ThermoFisher Scientific, Waltham, MA, USA) solution for 20 min. Then the cells were rinsed with PBS two more times, and cell colonies were stained with 0.1% aqueous crystal violet solution (Sigma-Aldrich Co.) for 20 min, followed by rinses with sterile deionized water to remove the excess dye. Photos of colonies were taken using the G:BOX gel documentation system (Syngene International Ltd., Bengaluru, India) and Genesys software (Syngene International Ltd.). The number of colonies and their area were calculated using GeneTools colony and cell counting software (Syngene International Ltd.) according to the manufacturer’s instructions. Cell colony area and number in control groups were normalized to 100%. The percentage of drug-treated colony area and number were compared to the control.

PANC-1 cells [8] = test: Clonogenic assay, PANC-1; format: cell-based, human; settings: for number and area of colonies: PANC-1, higher concentration (90% of EC50), normoxia and hypoxia
Description: as §3

MIA PaCa-2 cell line [9] = tested on: MIA PaCa-2 cell line; set-up: method as in PMID 30341797; settings: MIA PaCa-2, 5 μM; cited from earlier work
MIA PaCa-2 cell line [10] = tested on: MIA PaCa-2 cell line; set-up: method as in PMID 26176887; settings: MIA PaCa-2, 1 μM, 24 h and 48 h; cited from earlier work
Capan-2 cell line = settings: Capan-2, concentration-dependent; cited from earlier work
BxPC-3 cell line = settings: BxPC-3, concentration-dependent; cited from earlier work
human fibroblasts = test: MTT cell viability, human fibroblasts (selectivity); format: cell-based; settings: MIA PaCa-2 and PANC-1 vs fibroblasts
PANC-1 cells [11] = tested on: PANC-1 cells; set-up: method as in PMID 15202007; settings: 10 μM; cited from earlier work
[12] = MIA PaCa-2, hypoxia (100 µM CoCl2)

## Cc1nc(Nc2ncc(C(=O)Nc3c(C)cccc3Cl)s2)cc(N2CCN(CCO)CC2)n1 [Dasatinib]
PANC-1 cells [1]; 10 μM
  number of PANC-1 cell colonies: significantly reduced

## CCN(CC)CCNC(=O)c1c(C)[nH]c(/C=C2\C(=O)Nc3ccc(F)cc32)c1C [sunitinib, Sunitinib malate]
MIA PaCa-2 cells [2]
  inhibition of migration, hypoxia compared with normoxia: more under hypoxic conditions
MIA PaCa-2 cells [2]; MIA PaCa-2, 10 and 90% of EC50, normoxia and hypoxia (except lower concentration under normoxia)
  cell migration: statistically significantly inhibited cell migration
[3]; EC50 comparison
  activity on cell viability, hypoxia compared with normoxia: more active under normoxia than hypoxia conditions
[3]
  activity on cell viability, comparison between cell lines: inhibited more efficiently the cell viability of the MIA PaCa-2 cell line
PANC-1 cells [4]
  inhibition of migration, hypoxia compared with normoxia: more under hypoxic conditions
PANC-1 cells [4]; 24 h
  'wound' area compared to the control: no difference
PANC-1 cells [4]; 48 h and 72 h
  'wound' area compared to the control: significantly larger
PANC-1 cells [4]; PANC-1, 10 and 90% of EC50, normoxia and hypoxia
  cell migration: statistically significantly inhibited cell migration
PANC-1 cells [4]; PANC-1 monolayer, hypoxia, after 72 h
  'wound' area: 68.81 ± 5.24%
PANC-1 cells [5]; 3.5 μM
  decrease of PANC-1 cell viability: up to 50%
PANC-1 cells [5]; PANC-1, hypoxia (100 µM CoCl2)
  EC50: 3730 ± 210 nM
PANC-1 cells [5]; PANC-1, normoxia
  EC50: 3530 ± 210 nM
PANC-1 cell monolayer; 24 h
  change in 'wound' area compared to the control: did not establish a significant difference
MIA PaCa-2 cells [6]; [12]
  EC50: 3500 ± 300 nM
MIA PaCa-2 cells [6]; MIA PaCa-2, normoxia
  EC50: 2670 ± 210 nM
MIA PaCa-2 cells [7]
  MIA PaCa-2 cell colony formation: statistically significantly inhibited
  number and area of colonies: significantly reduced the number and area of colonies
PANC-1 cells [8]
  number and area of colonies: significantly reduced the number and area of colonies

## Nc1ccn([C@@H]2O[C@H](CO)[C@@H](O)C2(F)F)c(=O)n1 [gemcitabine]
MIA PaCa-2 cell line [9]
  colony formation: statistically significantly reduced
PANC-1 cells [1]; PANC-1, 5 μM
  colony formation: statistically significantly reduced
MIA PaCa-2 cell line [10]
  'wounds' compared to the control: did not show a significant difference
PANC-1 cell monolayer; 24 h and 48 h
  'wounds' compared to the control: did not show a significant difference

## CN(C)C/C=C/C(=O)Nc1cc2c(Nc3ccc(F)c(Cl)c3)ncnc2cc1O[C@H]1CCOC1 [Afatinib]
PANC-1 cells [1]; PANC-1, 0.25 to 2 μM
  cell colony formation: did not show an effect
Capan-2 cell line
  cell colony formation: inhibited cell colony formation
BxPC-3 cell line
  cell colony formation: inhibited cell colony formation

## COc1ccc(C2CC(c3ccc4ccccc4c3)=NN2C2=NC(=O)/C(=C3/C(=O)Nc4ccc(Cl)cc43)S2)cc1 (stereo not shown) [EMAC4001]
MIA PaCa-2 cells [2]
  inhibition of migration, hypoxia compared with normoxia: more than in normoxia
MIA PaCa-2 cells [2]; normoxia, higher concentrations (90% of EC50)
  cell migration: inhibited cell migration
[3]; 1 µM, 72 h, both cancer cell lines
  reduction of viability compared to sunitinib: statistically significantly stronger reduced
[3]; 1 µM, 72 h of incubation, at least one cell line
  reduction of cell viability: 90%
[3]
  activity on cell viability, comparison between cell lines: more active in the PANC-1 cell line
PANC-1 cells [4]
  inhibition of migration, hypoxia compared with normoxia: the effect was the opposite
PANC-1 cells [5]; PANC-1, hypoxia (100 µM CoCl2)
  EC50: 80 ± 5 nM
PANC-1 cells [5]; PANC-1, normoxia
  EC50: 98 ± 3 nM
  times more active than sunitinib: 36 times
PANC-1 cells [5]; PANC-1, hypoxia
  times more active than sunitinib: 47 times
MIA PaCa-2 cells [6]; [12]
  EC50: 100 ± 13 nM
MIA PaCa-2 cells [6]; MIA PaCa-2, normoxia
  EC50: 113 ± 8 nM
  times more active than sunitinib: 24 times
MIA PaCa-2 cells [6]; MIA PaCa-2, hypoxia
  times more active than sunitinib: 35 times
MIA PaCa-2 cells [7]
  MIA PaCa-2 cell colony growth, hypoxia compared with normoxia: stronger effect on the MIA PaCa-2 cell colony growth under hypoxia than normoxia
  MIA PaCa-2 cell colony formation: statistically significantly inhibited
  number and area of colonies: significantly reduced the number and area of colonies
MIA PaCa-2 cells [7]; MIA PaCa-2, 90% of EC50, normoxia and hypoxia
  number and size of cell colonies compared to sunitinib: less of MIA PaCa-2 and PANC-1 cell colonies and they were smaller
PANC-1 cells [8]; 90% of EC50, normoxia
  PANC-1 cell colony formation (number) compared to the control: inhibited the colony formation of PANC-1 cells
PANC-1 cells [8]; PANC-1, 90% of EC50, normoxia and hypoxia
  number and size of cell colonies compared to sunitinib: less of MIA PaCa-2 and PANC-1 cell colonies and they were smaller
PANC-1 cells [8]
  number and area of colonies: significantly reduced the number and area of colonies
Human fibroblasts
  selectivity towards cancer cells compared to human fibroblasts: most selective compound

## COc1cc2ncnc(Nc3ccc(F)c(Cl)c3)c2cc1OCCCN1CCOCC1 [Gefitinib]
PANC-1 cells [11]
  reduction of viability of PANC-1 cells: 78%
